According to patent US20240150338A1, “COMPOUNDS AND USE THEREOF FOR TREATMENT OF NEURODEGENERATIVE, DEGENERATIVE AND METABOLIC DISORDERS” (University of Florida Research Foundation, Incorporated, priority 2021, published 2024):

system: PK1 neuroblastoma cells exposed to TPrP; experiment: cells; assay type: cell-based; details: Neuroblastoma cell, 96 h, read-out: TPrP EC50

Row | Compound | EC50 [nM]
1 | COc1cc(-c2csc(Nc3ccc(S(C)(=O)=O)c(C(F)(F)F)c3)n2)cc(OC)n1 [SR-34986, 4-(2,6-Dimethoxypyridin-4-yl)-N-(4-(methylsulfonyl)-3-(trifluoromethyl)phenyl)thiazol-2-amine] | > 500
2 | Cc1cc(-c2csc(Nc3ccc(S(C)(=O)=O)c(F)c3)n2)ccn1 [SR-34973, N-(3-fluoro-4-(methylsulfonyl)phenyl)-4-(2-methylpyridin-4-yl)thiazol-2-amine] | 70
3 | CCN(c1ccc(S(C)(=O)=O)cc1)c1nc(-c2ccnc(C)c2)cs1 [SR-35368, N-ethyl-4-(2-methylpyridin-4-yl)-N-(4-(methylsulfonyl)phenyl)thiazol-2-amine] | 230
4 | Cc1cc(-c2nc(Nc3ccc(S(C)(=O)=O)c(F)c3)sc2CO)cc(C)n1 [SR-34979, (4-(2,6-Dimethylpyridin-4-yl)-2-((3-fluoro-4-(methylsulfonyl)phenyl)amino)thiazol-5-yl)methanol] | 360
5 | NS(=O)(=O)c1ccc(Nc2nc(-c3ccc(S(=O)(=O)N4CCOCC4)cc3)cs2)cc1 [SR-34765, 4-((4-(4-(Morpholinosulfonyl)phenyl)thiazol-2-yl)amino)benzenesulfonamide] | 70
6 | CS(=O)(=O)c1ccc(Nc2nc(-c3ccnc(Cl)c3)c(CO)s2)cc1F [SR-34977, (4-(2-Chloropyridin-4-yl)-2-((3-fluoro-4-(methylsulfonyl)phenyl)amino)thiazol-5-yl)methanol] | 360
7 | Cc1cc(-c2nc(Nc3ccc(S(C)(=O)=O)cc3)sc2COc2ccc(F)cc2)ccn1 [SR-35370, 5-((4-Fluorophenoxy)methyl)-4-(2-methylpyridin-4-yl)-N-(4-(methylsulfonyl)phenyl)thiazol-2-amine] | > 500
8 | CN(C)S(=O)(=O)c1ccc(-c2csc(Nc3ccc(S(C)(=O)=O)cc3)n2)cc1 [SR-34965, N,N-dimethyl-4-(2-((4-(methylsulfonyl)phenyl)amino)thiazol-4-yl)benzenesulfonamide] | 100
9 | Cc1cc(-c2csc(Nc3ccc(S(C)(=O)=O)c(C(F)(F)F)c3)n2)ccn1 [SR-34983, 4-(2-Methylpyridin-4-yl)-N-(4-(methylsulfonyl)-3-(trifluoromethyl)phenyl)thiazol-2-amine] | 40
10 | Cc1cc(-c2nc(Nc3ccc(S(C)(=O)=O)cc3)sc2C=O)ccn1 [SR-35367, 4-(2-Methylpyridin-4-yl)-2-((4-(methylsulfonyl)phenyl)amino)thiazole-5-carbaldehyde] | 230
11 | COc1cc(-c2nc(Nc3ccc(S(C)(=O)=O)c(C(F)(F)F)c3)sc2CO)cc(OC)n1 [SR-34991, (4-(2,6-Dimethoxypyridin-4-yl)-2-((4-(methylsulfonyl)-3-(trifluoromethyl)phenyl)amino)thiazol-5-yl)methanol] | > 500
12 | Cc1cc(-c2nc(Nc3ccc(S(C)(=O)=O)cc3)sc2CSc2ccccc2)ccn1 [SR-35371, 4-(2-Methylpyridin-4-yl)-N-(4-(methylsulfonyl)phenyl)-5-((phenylthio)methyl)thiazol-2-amine] | > 500
13 | Cc1cc(-c2nc(Nc3ccc(S(C)(=O)=O)cc3)sc2COc2ccccc2)ccn1 [SR-35369, 4-(2-Methylpyridin-4-yl)-N-(4-(methylsulfonyl)phenyl)-5-(phenoxymethyl)thiazol-2-amine] | > 500
14 | CN(C)S(=O)(=O)c1ccc(-c2csc(Nc3ccc(S(N)(=O)=O)cc3)n2)cc1 [SR-34769, N,N-dimethyl-4-(2-((4-sulfamoylphenyl)amino)thiazol-4-yl)benzenesulfonamide] | 30
15 | NS(=O)(=O)c1ccc(Nc2nc(-c3ccc(S(=O)(=O)Nc4ccccc4)cc3)cs2)cc1 [SR-34767, N-Phenyl-4-(2-((4-sulfamoylphenyl)amino)thiazol-4-yl)benzenesulfonamide] | > 500
16 | CNS(=O)(=O)c1ccc(-c2csc(Nc3ccc(S(N)(=O)=O)cc3)n2)cc1 [SR-34771, N-methyl-4-(2-((4-sulfamoylphenyl)amino)thiazol-4-yl)benzenesulfonamide] | 25
17 | Cc1cc(-c2nc(Nc3ccc(S(C)(=O)=O)c(Cl)c3)sc2CO)cc(C)n1 [SR-34995, (2-((3-Chloro-4-(methylsulfonyl)phenyl)amino)-4-(2,6-dimethylpyridin-4-yl)thiazol-5-yl)methanol] | 115
18 | COc1cc(-c2csc(Nc3ccc(S(C)(=O)=O)c(F)c3)n2)cc(OC)n1 [SR-34976, 4-(2,6-Dimethoxypyridin-4-yl)-N-(3-fluoro-4-(methylsulfonyl)phenyl)thiazol-2-amine] | 320
19 | CCN(CC)S(=O)(=O)c1ccc(-c2csc(Nc3ccc(S(N)(=O)=O)cc3)n2)cc1 [SR-34768, N,N-diethyl-4-(2-((4-sulfamoylphenyl)amino)thiazol-4-yl)benzenesulfonamide] | 150
20 | NS(=O)(=O)c1ccc(Nc2nc(-c3ccc(S(=O)(=O)N4CCCCC4)cc3)c(CO)s2)cc1 [SR-34772, 4-((5-(Hydroxymethyl)-4-(4-(piperidin-1-ylsulfonyl)phenyl)thiazol-2-yl)amino)benzenesulfonamide] | 400
21 | CN(C)S(=O)(=O)c1ccc(-c2nc(Nc3ccc(S(C)(=O)=O)cc3)sc2CO)cc1 [SR-34969, 4-(5-(Hydroxymethyl)-2-((4-(methylsulfonyl)phenyl)amino)thiazol-4-yl)-N,N-dimethylbenzenesulfonamide] | 350
22 | CCN(CC)S(=O)(=O)c1ccc(-c2nc(Nc3ccc(S(C)(=O)=O)cc3)sc2CO)cc1 [SR-34970, N,N-diethyl-4-(5-(hydroxymethyl)-2-((4-(methylsulfonyl)phenyl)amino)thiazol-4-yl)benzenesulfonamide] | > 500
23 | CS(=O)(=O)c1ccc(Nc2nc(-c3ccnc(Cl)c3)c(CO)s2)cc1C(F)(F)F [SR-34987, (4-(2-Chloropyridin-4-yl)-2-((4-(methylsulfonyl)-3-(trifluoromethyl)phenyl)amino)thiazol-5-yl)methanol] | 480
24 | CC(C)NS(=O)(=O)c1ccc(-c2csc(Nc3ccc(S(C)(=O)=O)cc3)n2)cc1 [SR-34967, N-isopropyl-4-(2-((4-(methylsulfonyl)phenyl)amino)thiazol-4-yl)benzenesulfonamide] | 500
25 | CCN(CC)S(=O)(=O)c1ccc(-c2csc(Nc3ccc(S(C)(=O)=O)cc3)n2)cc1 [SR-34966, N,N-diethyl-4-(2-((4-(methylsulfonyl)phenyl)amino)thiazol-4-yl)benzenesulfonamide] | > 500
26 | COc1cc(-c2csc(Nc3ccc(S(C)(=O)=O)c(F)c3)n2)ccn1 [SR-34975, N-(3-fluoro-4-(methylsulfonyl)phenyl)-4-(2-methoxypyridin-4-yl)thiazol-2-amine] | 170
27 | NS(=O)(=O)c1ccc(Nc2nc(-c3ccncc3)cs2)cc1 [SR-186, 4-((4-(pyridin-4-yl)thiazol-2-yl)amino)benzenesulfonamide] | 70
28 | CNS(=O)(=O)c1ccc(-c2nc(Nc3ccc(S(C)(=O)=O)cc3)sc2CO)cc1 [SR-34968, 4-(5-(Hydroxymethyl)-2-((4-(methylsulfonyl)phenyl)amino)thiazol-4-yl)-N-methylbenzenesulfonamide] | > 500
29 | NS(=O)(=O)c1ccc(Nc2nc(-c3ccc(S(=O)(=O)N4CCOCC4)cc3)c(CO)s2)cc1 [SR-34764, 4-((5-(Hydroxymethyl)-4-(4-(morpholinosulfonyl)phenyl)thiazol-2-yl)amino)benzenesulfonamide] | 60
